Experimental data: ChEMBL document CHEMBL4651402, “Screening of ~5500 FDA-approved drugs and clinical candidates for anti-SARS-CoV-2 activity” (2021)

Tested on: SARS-CoV-2
Test: microbe, parasite or virus in culture
Details: Severe acute respiratory syndrome coronavirus 2, Vero C1008, 48 h

| Compound | IC50 | IC50 (read-out: pIC50 (converted)) |
| --- | --- | --- |
| CC(C)n1nc(-c2ccc3oc(N)nc3c2)c2c(N)ncnc21 [SAPANISERTIB] | > 20 µM | > 20 µM |
| COc1ccnc(C[S+]([O-])c2nc3cc(-n4cccc4)ccc3[nH]2)c1C (stereo not drawn) [ILAPRAZOLE] | > 20 µM | > 20 µM |
| CCOC(=O)O[C@]1(C(=O)COC(=O)CC)CC[C@H]2[C@@H]3CCC4=CC(=O)C=C[C@]4(C)[C@H]3[C@@H](O)C[C@@]21C [PREDNICARBATE] | > 20 µM | > 20 µM |
| CNC(=O)c1ccc(N2C(=S)N(c3ccc(C#N)c(C(F)(F)F)c3)C(=O)C2(C)C)cc1F [ENZALUTAMIDE] | > 20 µM | > 20 µM |
| COC1=CC(=O)C=C(OC)C1=O [2,6-DIMETHOXYQUINONE] | > 20 µM | > 20 µM |
| CC(=O)C1(O)CCC2C3CC(C)C4=CC(=O)C=CC4(C)C3(F)C(O)CC21C (stereo not drawn) | > 20 µM | > 20 µM |
| COc1ccc(C(=O)OC2CCC3(C)C4CCC5[C@]6(O)[C@@H](O)C(O)[C@H]7C(CN8CC(C)CC[C@H]8[C@@]7(C)O)[C@@H]6C[C@@]53O[C@]24O)cc1OC (stereo partly drawn) | > 20 µM | > 20 µM |
| NS(=O)(=O)c1cc2c(cc1Cl)N=C(CSCc1ccccc1)NS2(=O)=O [BENZTHIAZIDE] | > 20 µM | > 20 µM |
| O=C(Nc1ccc(C(=O)N2C[C@H]3COCCN3Cc3ccccc32)c(Cl)c1)c1ccccc1-c1ccccc1 | > 20 µM | > 20 µM |
| NC(N)=NOCC[C@H](N)C(=O)O [CANAVANINE] | > 20 µM | > 20 µM |
| [N-]=[N+]=CC(=O)CC[C@H](N)C(=O)O [6-DIAZO-5-OXO-L-NORLEUCINE] | > 20 µM | > 20 µM |
| CC(=O)OCC(=O)Nc1cc(C#N)cc(NC(=O)COC(C)=O)c1Cl [ACREOZAST] | > 20 µM | > 20 µM |
| CCOC(=O)CC(SP(=S)(OC)OC)C(=O)OCC (stereo not drawn) [MALATHION] | > 20 µM | > 20 µM |
| NS(=O)(=O)c1cc2c(cc1Cl)NC(c1ccccc1)NC2=O (stereo not drawn) [FENQUIZONE] | > 20 µM | > 20 µM |
| COc1c2ccoc2cc2oc(C)cc(=O)c12 [VISNAGIN] | > 20 µM | > 20 µM |
| COc1ccc(/C=C2\CCCN=C2c2cccnc2)c(OC)c1 [GTS-21] | > 20 µM | > 20 µM |
| CC1CCc2c(N3CCC(O)CC3)c(F)cc3c(=O)c(C(=O)O)cn1c23 (stereo not drawn) [NADIFLOXACIN] | > 20 µM | > 20 µM |
| CC(=O)NS(=O)(=O)c1ccc(NC(=O)c2ccccc2C(=O)O)cc1 | > 20 µM | > 20 µM |
| CC(C)(O)CC(=O)O [.BETA.-HYDROXYISOVALERIC ACID] | > 20 µM | > 20 µM |
| CC1=C(C(=O)O)N2C(=O)C(NC(=O)C(N)c3ccc(O)cc3)C2SC1 (stereo not drawn) | > 20 µM | > 20 µM |
| CC[C@@H](C)n1ncn(-c2ccc(N3CCN(c4ccc(OC[C@H]5CO[C@@](Cn6cncn6)(c6ccc(F)cc6F)O5)cc4)CC3)cc2)c1=O | > 20 µM | > 20 µM |
| CCOP(=S)(Oc1cccc2cccnc12)c1ccccc1 (stereo not drawn) [QUINTIOFOS] | > 20 µM | > 20 µM |
| CCN(CC)C(=O)/C(C#N)=C/c1cc(O)c(O)c([N+](=O)[O-])c1 [ENTACAPONE] | > 20 µM | > 20 µM |
| CC[C@@H](Nc1c(Nc2cccc(C(=O)N(C)C)c2O)c(=O)c1=O)c1ccc(C)o1 [NAVARIXIN ANHYDROUS] | > 20 µM | > 20 µM |
| O=c1cc(-c2ccccc2)oc2cc(O)ccc12 [7-HYDROXYFLAVONE] | > 20 µM | > 20 µM |

| Compound | IC50 | IC50 (read-out: pIC50 (converted)) |
| --- | --- | --- |
| CNC(=O)c1cc(Oc2ccc(NC(=O)Nc3ccc(Cl)c(C(F)(F)F)c3)cc2)ccn1 [SORAFENIB] | > 20 µM | > 20 µM |
| C[C@@H]1CN([C@H]2CC[C@](C#N)(c3ccc(F)cc3)CC2)CC[C@]1(C(=O)O)c1ccccc1 [LEVOCABASTINE] | > 20 µM | > 20 µM |
| O=C(O)CO [GLYCOLIC ACID] | > 20 µM | > 20 µM |
| CN1CCN(C2=Nc3ccccc3Oc3ccc(Cl)cc32)CC1 [LOXAPINE] | > 20 µM | > 20 µM |
| COc1ccc(-c2nnc(C)nc2-c2ccc(OC)cc2)cc1 [ANITRAZAFEN] | > 20 µM | > 20 µM |
| O=[N+]([O-])OC1COC2C(O[N+](=O)[O-])COC12 (stereo not drawn) | > 20 µM | > 20 µM |
| CC(C)CC1C(=O)N2CCCC2C2(O)OC(NC(=O)C3CC4c5cccc6[nH]cc(c56)CC4N(C)C3)(C(C)C)C(=O)N12 (stereo not drawn) | > 20 µM | > 20 µM |
| CC1(C)CC2C1CCC1(C)OC2(C)CCC1O (stereo not drawn) [3,7-EPOXYCARYOPHYLLAN-6-OL] | > 20 µM | > 20 µM |
| CCOC(=O)NNc1nncc2ccccc12 [TODRALAZINE] | > 20 µM | > 20 µM |
| COC(=O)Nc1nc2ccc(C(=O)C3CC3)cc2[nH]1 [CYCLOBENDAZOLE] | > 20 µM | > 20 µM |
| CC(=O)Oc1ccccc1C(=O)Nc1ncc([N+](=O)[O-])s1 [NITAZOXANIDE] | > 20 µM | > 20 µM |
| COc1cc2[nH]c(C)c(CCN3CCN(c4ccccc4OC)CC3)c2cc1OC [MILIPERTINE] | > 20 µM | > 20 µM |
| COc1cc2[nH]c(C)c(CCN3CCN(c4ccccc4)CC3)c2cc1OC [OXYPERTINE] | > 20 µM | > 20 µM |
| c1cn2cc(-c3ccc4cn[nH]c4c3)nc(Nc3ccc(N4CCOCC4)cc3)c2n1 [ENTOSPLETINIB] | > 20 µM | > 20 µM |
| CCN1C(=S)N(c2ccc(N3CCN(c4ccc(O)cc4)CC3)cc2)C(=O)C1(C)C | > 20 µM | > 20 µM |
| C#Cc1cncc([C@@H]2CCCN2C)c1 [ALTINICLINE] | > 20 µM | > 20 µM |
| O=C(O)c1cc2cc(Cc3cccnc3)ccc2o1 [FUREGRELATE] | > 20 µM | > 20 µM |
| CNC1(C)C2CCC(C2)C1(C)C (stereo not drawn) [MECAMYLAMINE] | > 20 µM | > 20 µM |
| O=C(O)c1ccccc1NCCc1ccccc1 [ENFENAMIC ACID] | > 20 µM | > 20 µM |
| CC1CNc2c(cccc2S(=O)(=O)N[C@@H](CCCNC(=N)N)C(=O)N2CC[C@@H](C)C[C@@H]2C(=O)O)C1 (stereo partly drawn) [ARGATROBAN] | > 20 µM | > 20 µM |
| CCC12CCCN3CCc4c(n(c5ccccc45)C(O)(C(=O)OC)C1)C32 (stereo not drawn) | > 20 µM | > 20 µM |
| CCOC(=O)c1ccccc1OC(=O)CCCCCCCC(=O)Oc1ccccc1C(=O)OCC | > 20 µM | > 20 µM |
| Cc1cccc(C)c1NC(=O)NCCCNC(C)C | > 20 µM | > 20 µM |
| NS(=O)(=O)c1cc(C(=O)O)c(NCc2ccco2)cc1Cl [FUROSEMIDE] | > 20 µM | > 20 µM |
| CCOc1cc(N)c([N+](=O)[O-])cc1C(=O)NC1CCN(CC2CC=CCC2)CC1 (stereo not drawn) [CINITAPRIDE] | > 20 µM | > 20 µM |

| Compound | IC50 | IC50 (read-out: pIC50 (converted)) |
| --- | --- | --- |
| CCN1C[C@]2(C)CC[C@H](O)[C@@]34[C@@H]5C[C@H]6[C@H](O)[C@@H]5[C@](O)(C[C@@H]6OC)[C@@H](C[C@H]23)[C@H]14 | > 20 µM | > 20 µM |
| Nc1nc(N)c2nc(-c3ccccc3)c(N)nc2n1 | > 20 µM | > 20 µM |
| Nc1ccccc1S(N)(=O)=O | > 20 µM | > 20 µM |
| C=CC(=O)Nc1cc2c(Nc3ccc(F)c(Cl)c3)ncnc2cc1OCCCN1CCOCC1 [CANERTINIB] | > 20 µM | > 20 µM |
| O=C(Nc1ccccc1F)N[C@@H]1N=C(c2ccccc2)c2ccccc2NC1=O | > 20 µM | > 20 µM |
| O=C(O)CCCCCCCC(=O)O [AZELAIC ACID] | > 20 µM | > 20 µM |
| NCC1O[C@H](O[C@@H]2C(N)C[C@@H](N)C(O[C@H]3OC(CO)[C@@H](O)C(N)C3O)C2O)C(N)C(O)[C@@H]1O (stereo partly drawn) | > 20 µM | > 20 µM |
| CC(C)(C)NCC(O)COc1ccc(NC(=O)NC2CCCCC2)cc1 (stereo not drawn) [TALINOLOL] | > 20 µM | > 20 µM |
| CCN(CC)CCOc1ccc2nc(N(C)C)sc2c1 [DIAMTHAZOLE] | > 20 µM | > 20 µM |
| O=C1CN=C(c2ccccc2)c2cc(Cl)ccc2N1 [NORDAZEPAM] | > 20 µM | > 20 µM |
| CC1(C)CN(C(=O)c2ccc(-c3cccc4nc(NC(=O)C5CC5)nn34)cc2)C1 [SOLCITINIB] | > 20 µM | > 20 µM |
| Cc1cc(NC(=O)C2=C(O)c3ccccc3S(=O)(=O)N2C)no1 [ISOXICAM] | > 20 µM | > 20 µM |
| CC(C)Nc1cccnc1N1CCN(C(=O)c2cc3cc(NS(C)(=O)=O)ccc3[nH]2)CC1 [DELAVIRDINE] | > 20 µM | > 20 µM |
| C=CCC1(C2C=CCCC2)C(=O)NC(=S)NC1=O (stereo not drawn) [THIALBARBITAL] | > 20 µM | > 20 µM |
| Cc1ccc(F)c(NC(=O)Nc2ccc(-c3cccc4[nH]nc(N)c34)cc2)c1 [LINIFANIB] | > 20 µM | > 20 µM |
| CO[C@H]1[C@H](O)[C@@H](O)[C@H](O)[C@H](O)[C@H]1O [QUEBRACHITOL] | > 20 µM | > 20 µM |
| OC(CCN1CCCCC1)(c1ccccc1)C1CCCCC1 (stereo not drawn) [TRIHEXYPHENIDYL] | > 20 µM | > 20 µM |
| CN1CCN(c2cc3c(nn2)Oc2ccccc2N3C)CC1 [PIPOFEZINE] | > 20 µM | > 20 µM |
| N=C(N)c1ccc(CNC(=O)[C@@H]2CCN2C(=O)[C@H](NCC(=O)O)C2CCCCC2)cc1 | > 20 µM | > 20 µM |
| Nc1nc2ccc(OC(F)(F)F)cc2s1 [RILUZOLE] | > 20 µM | > 20 µM |
| CC(C)OC(=O)[C@H](C)NP(=S)(OC[C@H]1O[C@@H](n2ccc(=O)[nH]c2=O)[C@](C)(O)[C@@H]1O)Oc1ccccc1 (stereo partly drawn) [VX-135] | > 20 µM | > 20 µM |
| Cc1nccc2c1[nH]c1cc(O)ccc12 | > 20 µM | > 20 µM |
| C[C@@H]1O[C@@H](O[C@@H]2C=C3CCC4C(CC[C@]5(C)[C@@H](c6ccc(=O)oc6)CC[C@]45O)[C@@]3(C)CC2)[C@H](O)[C@H](O)[C@H]1O (stereo partly drawn) | > 20 µM | > 20 µM |
| C[C@]12CC[C@H](O)C[C@H]1CC[C@@H]1[C@@H]2CC[C@]2(C)[C@@](O)(c3ccoc3)CC[C@]12O [ROSTAFUROXIN] | > 20 µM | > 20 µM |
